Test results: patent US20110306040A1, “CPG RECEPTOR (CPG-R) AND METHODS RELATING THERETO” (priority 1999, published 2011)

How the values were obtained:
[1] = tested on: NF-κB; experiment: κB-Luc assay in RAW 264.7 macrophages; type: cell-based, mouse; conditions: for κB-dependent luciferase expression: RAW 264.7 transfected with κB-Luc, IL-1 20 ng/ml, MPL 1 μg/ml, oligonucleotides 4 μM, normalized to untreated transfected cells
Method: RAW 264.7 cells were seeded into 6-well plates (Corning) at a density of 3×10^5 cells per well 24 hours prior to transfection. Plasmids used in transfection were pNF-κB-Luc (Clontech) and pCR3. V64-Met-Flag-MyD88lpr (kindly provided by Jurgen Tschopp; described in (Burns et al., J. Biol. Chem., 1998, 273, 12203-9). Total plasmid DNA concentration was normalized across all wells by addition of empty vector (pCMVKm2, Chiron). Cells were transfected with stated concentrations of DNA in Opti-MEM I (Gibco BRL) with […] of LipofectAMINE (Gibco BRL) per well according to manufacturer's instructions. Cells were incubated with the transfection mixture 3 hours at 37° C., then culture media was replaced and cells were allowed to recover overnight. The following day transfected cells were treated in culture media at 37° C., 5% CO2 with phosphorothioate oligonucleotides, MPL, LPS, or cytokines at indicated concentrations and times. Cells were washed once with cold phosphate buffered saline (PBS), and lysed with Reporter Lysis BufferJ (Promega). Luciferase activity in lysate supematants was determined using Microlite 2 plates (Dynex) and a ML 3000 Luminometer (Dynatech) all according to manufacture's instructions. For detection of FLAG-MyD88lpr expression, the insoluble pellet from transfected RAW 264.7 cells was resuspended in Triton lysis buffer and sonicated 10 minutes prior to addition of sample buffer and boiling. After separation and transfer to nitrocellulose, membranes were immunoblotted using FLAG M2 (Sigma) antibody.
To directly evaluate κB-dependent transcription induced by CpG oligonucleotide or MPL treatment, RAW 264.7 macrophage were transfected with an NF-κB-inducible reporter plasmid encoding luciferase under the control of multiple copies of the kappa light chain enhancer (κB-Luc) and the following day treated with adjuvants or cytokines. In particular, RAW 264.7 cells were transfected with a kB-driven luciferase reporter gene and treated 24 hours later with IL-1 (20 ng/ml), MPL (1 μg/ml), LPS (1 μg/ml) or a phosphorothioate CpG oligonucleotide (4 μM) for 6 hours. Luciferase activity in cell lysates was quantified by luminometry, and results were normalized to the luciferase signal in untreated transfected cells.
The effects of CpG oligonucleotide on κB-dependent luciferase expression were dose- and time-dependent (see FIGS. 1B and 1C). In regard to FIG. 1B, RAW 264.7 cells transiently transfected with a κB-luciferase reporter plasmid were treated 24 hours later with concentrations of phosphorothioate CpG oligonucleotide concentrations ranging from 0.25-8 μM, or a control oligonucleotide (4 μM) for 6 hours. Activation was detected at CpG oligonucleotide concentrations as low as 0.25 μM (FIG. 1B), but not at the lowest concentration tested (0.05 μM) (data not shown). Data shown in FIG. 1B are average luciferase activity in lysates from duplicate wells normalized to luciferase levels in lysates from untreated transfected wells on the same 6-well tissue culture plate. […] In regard to FIG. 1C, RAW 264.7 cells transiently transfected with a kB-Luc and treated 24 hours later with a CpG-containing oligonucleotide (4 μM; open circles), or LPS (1 μg/ml; filled circles). Results shown in FIG. 1C are average of duplicate wells normalized to untreated transfected wells.

[2] = tested on: MyD88; experiment: κB-Luc assay in RAW 264.7 cells co-transfected with dominant-negative MyD88lpr; type: cell-based, mouse; conditions: κB-Luc:MyD88lpr 10:1 or 1:1, oligonucleotides 4 μM, MPL 1 μg/ml, LPS 1 μg/ml
[3] = tested on: CD86 expression on TLR4 mutant BMDDC; experiment: Flow cytometry of cell-surface CD86 on TLR4 mutant (C3H/HeJ) BMDDC; type: cell-based, mouse; conditions: overnight, oligonucleotide 5 μM, LPS 1 μg/ml, normalized to untreated
Method: (§1) Bone marrow was harvested from female mice 6-12 weeks old of various genotypes (C57Bl/6, Balb/c; Charles River; or C3H/HeJ, Jackson Labs). Bone marrow cells were used fresh or were frozen in fetal calf serum (FCS; Summit) containing 10% dimethylsulfoxide and stored at −80° C. Bone-marrow macrophages (BMMO) were prepared as described in Current Protocols in Immunology, supra. Briefly, fresh or frozen bone marrow cells were cultured in RPMI, 10% heat inactivated (30 minutes, 56° C.) fetal calf serum (FCS), 2 mM L-glutamine, 100 μg/ml streptomycin, 100 units/ml penicillin, 50 μM β-mercaptoethanol and 100 U/ml recombinant macrophage colony stimulating factor (M-CSF; R&D Systems). After 24 hours, nonadherent cells were removed to a new dish, and culture continued for 7 days to produce a macrophage monolayer. […]
(§2) BMDDC were treated overnight with adjuvants as indicated, washed, resuspended in cold PBS/2% FBS containing FcBlock (0.25 μg/10^6 cells; Pharmingen), and FITC- and PE-conjugated antibodies (1 μg/10^6 cells) were added 5 minutes later. Cells were incubate with antibodies on ice 30 minutes, washed, and analyzed by flow cytometry on a FACScan (Becton-Dickenson). […] Changes in CD86 expression are assessed based on geometric mean fluorescence of CD86-FITC staining of the live CD11c cells treated with adjuvants normalize to the geometric mean CD86-FITC fluorescence of untreated BMDDC cultures. […]

[4] = tested on: MAPK pathways, including ERK, JNK and p38; experiment: Immunoblotting for MAPK pathway phosphorylation (ERK1/2, JNK/c-jun, p38 substrate ATF2); type: cell-based, mouse; conditions: BMMO, dendritic cells and RAW 264.7; within an hour of stimulation; oligonucleotides 1 μM; data not shown
Method: as §1, with “monolayer. Nonadherent BMDDCs were produced by culture in the same medium supplemented with GM-CSF (200 U/ml; Preprotech) rather than M-CSF.” for “monolayer.”
Macrophages were differentiated from bone marrow cells of C57Bl/6 mice as described in Example 1 and then transferred to low serum medium lacking M-CSF for 4 hours. […] The positive result for ERK½ MAPK activation in RAW 264.7 cells and BMMO are in contrast to observations in another mouse macrophage cell line, J774, where ERK phosphorylation was not detected in CpG oligonucleotide-treated cells.

[5] = tested on: MyD88; experiment: κB luciferase assay of RAW 264.7 cells transfected with MyD88 dominant-negative constructs; type: cell-based, mouse; conditions: FIG. 3B
Description: (§3) In another set of experiments, three MyD88 constructs lacking the ability to transduce signals were amplified by PCR, and placed under constitutive control of the CMV promoter (pCMV-FLAG vector, Sigma Aldrich). The first construct, MyD88lpr, contains a point mutation F56N in the death domain. The second construct, MyD88-ΔDD, lacks the death domain completely. The third construct, MyD88-THD, lacks both the death domain and the intermediate domain. The DNA was transfected into RAW 264.7 cells or murine embryonic NIH-3T3 cells using a cationic lipid reagent. A luciferase reporter plasmid was cotransfected. […] Cells were then stimulated with CpG oligonucleotides and several control cytokines. Luciferase expression was assayed on a luminometer to determine if the mutant MyD88 protein had affected CpG signaling. Restriction analysis and sequencing results confirmed the presence of the MyD88 constructs (data not shown). […] The MyD88 TIR domain alone was sufficient to block signaling.

[6] = tested on: ERK; conditions: J774 mouse macrophage cell line; cited from earlier work
[7] = tested on: MyD88; experiment: κB luciferase assay of NIH-3T3 cells transfected with MyD88 dominant-negative constructs; type: cell-based, murine; conditions: FIG. 3A
Description: as §3

[8] = tested on: IκBα; experiment: Immunoblotting for phosphorylated and total IκBα in RAW 264.7 cells; type: cell-based, mouse; conditions: 4 μM
Method: Following stimulation, BMMO or RAW 264.7 cells were lysed in 1% Triton X-100, 50 mM Tris, 62.5 mM EDTA (pH 8.0) with CompleteJ protease inhibitor cocktail (Boehringer Mannheim) (Triton lysis buffer). Lysates were boiled in reducing sample buffer, separated on 10% polyacrylamide gels using the NuPAGEJ Bis-Tris electrophoresis system (Novex). Nitrocellulose membranes were probed with antibodies against IκB-α, phosphorylated-IκB-α, (New England BioLabs), or anti-IL-18 (Santa Cruz Biotechnology) according to manufacturer's instructions, and visualized with enhanced chemiluminescence (Amersham).
Lysates were also prepared from untreated RAW 264.7 cells or cells treated with a phosphorothioate CpG oligonucleotide (4 μM) for 5, 10, 20 and 60 minutes as well as a control oligonucleotide lacking CpG motifs for 60 minutes. The lysates were then resolved by electrophoresis, and immunoblotted with antisera to phosphorylated IκBα and total IκBα. […] This activation was detected at the level of IκBα phosphorylation within 10 minutes of CpG oligonucleotide addition, and degradation of IκBα was notable at 20 minutes.

[9] = tested on: CD86 expression on BMDDC; experiment: Flow cytometry of cell-surface CD86 on wild-type (Balb/c) BMDDC; type: cell-based, mouse; conditions: overnight, oligonucleotides 5 μM, LPS 1 μg/ml, normalized to untreated
Method: as §1, §2

With monophosphoiyl lipid A [MPL] the κB-dependent luciferase expression ([1]; 6 hours, LPS 1 μg/ml) was “potent activators of NF-κB”, the “Effect of dominant-negative MyD88lpr expression on induced κB-dependent luciferase activity” value [2] was “inhibited” and the “Cell-surface CD86 expression on live CD11c positive cells” value (“Cell-surface CD86 expression” below) [3] was “no change in CD86 expression”.

With “tccaggacttctctcaggtt (TCCAGGACTTCTCTCAGGTT; DNA, all phosphorothioate, methylation of C not given here) [control oligonucleotide]” the “Phosphorylation of ERK, JNK and/or the JNK substrate c-jun, and of the p38 MAPK substrate ATF2” value [4] was “not” and the κB-dependent luciferase expression ([1]; 6 hours, LPS 1 μg/ml) was “did not induce an increase”.

In the case of “tccatgacgttcctgacgtt [CpG oligonucleotide]”, the “Phosphorylation of ERK, JNK and/or the JNK substrate c-jun, and of the p38 MAPK substrate ATF2” value [4] is given as “observed in all three cell types”, the “Effect of dominant negative MyD88 constructs (MyD88lpr, MyD88-ΔDD, MyD88-THD) on signaling to κB luciferase reporter” value [5] is given as “specifically and selectively blocks signaling” and the ERK phosphorylation [6] is given as “not detected”. For the same molecule, the “Effect of dominant negative MyD88 constructs (MyD88lpr, MyD88-ΔDD, MyD88-THD) on signaling to κB luciferase reporter” value [7] was “specifically and selectively blocks signaling”, the “Time at which IκBα phosphorylation was detected after addition” value [8] was at most 10 min and the “Time at which degradation of IκBα was notable” value [8] was 20 min. For the same molecule, the “κB-Luc activation at the lowest concentration tested” value ([1]; RAW 264.7, 0.05 μM, data not shown) was “not”, the “Activation of the reporter gene at 10 μM dose relative to 8 μM” value ([1]; RAW 264.7, 10 μM, data not shown) was “not further enhanced” and the “Concentration of maximal activation of the reporter gene” value ([1]; RAW 264.7, 6 hours, FIG. 1B) was 8 µM. The “Lowest concentration at which κB-Luc activation was detected” value ([1]; RAW 264.7, 6 hours, FIG. 1B) was 0.25 µM, the “Increase of κB-dependent luciferase expression by 2 hours” value ([1]; RAW 264.7, CpG oligonucleotide 4 μM, LPS 1 μg/ml, FIG. 1C) was “greater than two-fold increase” and the κB-dependent luciferase expression ([1]; 6 hours, LPS 1 μg/ml) was “induced κB-dependent luciferase expression, to a level similar to that induced by MPL or LPS”. The “Cell-surface CD86 expression” value [9] was “increased cell-surface CD86 expression”, the “Effect of dominant-negative MyD88lpr expression on induced κB-dependent luciferase activity” value [2] was “inhibited” and the “Cell-surface CD86 expression” value [3] was “an increase in CD86 expression similar to that observed in the wild-type BMDDC”.

B1: IL-1: recombinant mouse interleukin-1β (Endogen) (protein, UniProt P10749 118-269, looked up)
Interleukin-1 beta: VPIRQLHYRLRDEQQKSLVLSDPYELKALHLNGQNINQQVIFSMSFVQGEPSNDKIPVALGLKGKNLYLSCVMKDGTPTLQLESVDPKQYPKKKMEKRFVFNKIEVKSKVEFESAEFPNWYISTSQAEHKPVFLGNNSGQDIIDFTMESVSS
For B1, the “Effect of dominant negative MyD88 constructs (MyD88lpr, MyD88-ΔDD, MyD88-THD) on signaling to κB luciferase reporter” value [7] was “did inhibit” and the κB-dependent luciferase expression ([1]; 6 hours, LPS 1 μg/ml) was “poor activator”.

B2: IL-18: recombinant mouse interleukin-18 (Biosource) (protein, UniProt P70380 36-192, looked up)
Interleukin-18: NFGRLHCTTAVIRNINDQVLFVDKRQPVFEDMTDIDQSASEPQTRLIIYMYKDSEVRGLAVTLSVKDSKMSTLSCKNKIISFEEMDPPENIDDIQSDLIFFQKRVPGHNKMEFESSLYEGHFLACQKEDDAFKLILKKKDENGDKSVMFTLTNLHQS
In the case of B2, the κB-dependent luciferase expression ([1]; 6 hours, LPS 1 μg/ml) is reported as “poor activator”.
